Consider 10 compounds from US20230365584A1, “HETEROCYCLIC PERICONDENSED CDC7 KINASE INHIBITORS FOR THE TREATMENT OF CANCER” (SCHRÖDINGER, INC., priority 2020, published 2023).

pIC50: −log10 of the molar value.

Chain of Full length human CDC7 protein co-expressed with DBF4 (O00311 whole entry): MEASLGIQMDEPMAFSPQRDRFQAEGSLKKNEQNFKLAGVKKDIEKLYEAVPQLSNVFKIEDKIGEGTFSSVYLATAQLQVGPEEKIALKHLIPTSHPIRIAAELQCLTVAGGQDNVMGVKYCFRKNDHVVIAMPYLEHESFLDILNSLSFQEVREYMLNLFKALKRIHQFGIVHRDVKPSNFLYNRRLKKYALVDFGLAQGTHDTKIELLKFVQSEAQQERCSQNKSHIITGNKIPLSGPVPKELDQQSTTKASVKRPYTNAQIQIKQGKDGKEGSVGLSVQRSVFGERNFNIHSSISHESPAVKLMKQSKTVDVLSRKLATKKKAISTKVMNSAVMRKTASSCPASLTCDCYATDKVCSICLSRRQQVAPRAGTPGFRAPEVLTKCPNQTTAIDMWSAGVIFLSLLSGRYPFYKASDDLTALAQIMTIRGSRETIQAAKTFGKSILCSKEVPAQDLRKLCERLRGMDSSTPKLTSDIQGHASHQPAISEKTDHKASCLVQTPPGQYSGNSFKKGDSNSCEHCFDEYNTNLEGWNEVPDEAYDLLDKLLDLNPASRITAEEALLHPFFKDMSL
Chain of Full length human CDC7 protein co-expressed with DBF4 (Q9UBU7 whole entry partner): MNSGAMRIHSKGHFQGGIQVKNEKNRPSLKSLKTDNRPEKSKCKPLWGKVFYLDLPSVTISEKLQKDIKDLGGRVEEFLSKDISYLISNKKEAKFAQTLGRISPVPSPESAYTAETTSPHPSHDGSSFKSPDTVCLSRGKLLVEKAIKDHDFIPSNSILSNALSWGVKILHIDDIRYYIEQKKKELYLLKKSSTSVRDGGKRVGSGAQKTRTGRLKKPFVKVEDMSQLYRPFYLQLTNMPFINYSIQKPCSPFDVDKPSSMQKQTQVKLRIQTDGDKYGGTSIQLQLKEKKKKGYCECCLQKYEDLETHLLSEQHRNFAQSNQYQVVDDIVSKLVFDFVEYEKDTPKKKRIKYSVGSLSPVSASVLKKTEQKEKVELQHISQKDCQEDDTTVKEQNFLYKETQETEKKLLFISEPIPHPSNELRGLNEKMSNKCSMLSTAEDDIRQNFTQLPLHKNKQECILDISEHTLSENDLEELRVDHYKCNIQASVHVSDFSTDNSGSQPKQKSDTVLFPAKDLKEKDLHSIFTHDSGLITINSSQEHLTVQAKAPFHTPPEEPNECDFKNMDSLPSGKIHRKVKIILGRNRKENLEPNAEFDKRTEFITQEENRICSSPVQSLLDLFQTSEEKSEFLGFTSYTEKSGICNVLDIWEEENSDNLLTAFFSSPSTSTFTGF

The assay addresses Full length human CDC7 protein co-expressed with DBF4 (Homo sapiens (Human), UniProt O00311). Briefly: CDC7 kinase biochemical assay (ADP-Glo, PDKtide substrate). To be noted: 0.1 nM CDC7/DBF4, 1 uM ATP, 10 uM PDKtide, 4 h. On the procedure: CDC7 Kinase Biochemical Assay Protocol:
Full length human CDC7 protein co-expressed with DBF4 was purchased from SignalChem (China). CDC7 kinase activity was determined with PDKtide (SignalChem) as a substrate and by measuring ADP production using the ADP-Glo™ Kinase Assay kit (Promega) following the manufacturers instructions. The kinase reaction was performed using the following conditions: Buffer: 40 mM Tris pH 7.5, 20 mM MgCl2, 0.1 mg/ml BSA and 50 uM DTT. Final reaction mix contained 0.1 nM CDC7/DBF4, 1 uM ATP and 10 uM PDKtide. The kinase reaction time was 4 h. The ADP-Glo signal was measured using an EnVision plate reader (PerkinELmer).
Percent inhibition of CDC7 kinase activity was calculated based on the following formula:
[formula] • Ssample: the signal of compounds • SHigh Ctrl: the signal of high control (DMSO) • SLow Ctrl: the signal of low control (positive control CDC7 inhibitor)
(In general: In ADP-Glo the light output rises with the ADP produced.)
A word on the pIC50: it is −log10 of the IC50, conventionally taken in molar units. A low value points to a large IC50. The compound `Cc1[nH]c(=O)c2sc(-c3cn[nH]c3)c3c2c1CC(F)(F)CO3` [Example 43, 10,10-difluoro-7-methyl-2-(1H-pyrazol-4-yl)-12-oxa-3-thia-6-azatricyclo[6.4.1.0^4,13]trideca-1,4(13),7-trien-5-one] had a pIC50 greater than 9.00. With `CC(C)(O)c1[nH]c(=O)c2sc(-c3cn[nH]c3)c3c2c1CC(F)(F)CO3` [Example 45, 10,10-difluoro-7-(1-hydroxy-1-methyl-ethyl)-2-(1H-pyrazol-4-yl)-12-oxa-3-thia-6-azatricyclo[6.4.1.0^4,13]trideca-1,4(13),7-trien-5-one], the pIC50 is greater than 9.00. The compound `O=C(c1[nH]c(=O)c2sc(-c3cn[nH]c3)c3c2c1CCCO3)N1CCOCC1` [Example 52, 7-(morpholine-4-carbonyl)-2-(1H-pyrazol-4-yl)-12-oxa-3-thia-6-azatricyclo[6.4.1.0^4,13]-trideca-1,4(13),7-trien-5-one] showed a pIC50 of 8.00 to 9.00.

`O=C(c1[nH]c(=O)c2sc(-c3cn[nH]c3)c3c2c1CCCO3)N1CC(O)C1` [Example 53, 5-(3-hydroxyazetidine-1-carbonyl)-1-(1H-pyrazol-4-yl)-4,6,7,8-tetrahydro-3H-9-oxa-2-thia-4-azabenzo[cd]azulen-3-one] had a pIC50 of 8.00 to 9.00. The same measure for `CC(=O)N(C)c1[nH]c(=O)c2sc(-c3cn[nH]c3)c3c2c1CCCO3` [Example 56, N-methyl-N-(3-oxo-1-(1H-pyrazol-4-yl)-4,6,7,8-tetrahydro-3H-9-oxa-2-thia-4-azabenzo[cd]azulen-5-yl)acetamide]: greater than 9.00; for `N#CCc1[nH]c(=O)c2sc(-c3cn[nH]c3)c3c2c1CCCO3` [Example 75, 2-(3-oxo-1-(1H-pyrazol-4-yl)-4,6,7,8-tetrahydro-3H-9-oxa-2-thia-4-azabenzo[cd]azulen-5-yl)acetonitrile]: greater than 9.00. `COC(=O)Cc1[nH]c(=O)c2sc(-c3cn[nH]c3)c3c2c1CCCO3` [Example 76, methyl 2-(3-oxo-1-(1H-pyrazol-4-yl)-4,6,7,8-tetrahydro-3H-9-oxa-2-thia-4-azabenzo[cd]azulen-5-yl)acetate] had a pIC50 greater than 9.00. The same measure for `CC(C)(O)Cc1[nH]c(=O)c2sc(-c3cn[nH]c3)c3c2c1CCCO3` [Example 77, 5-(2-hydroxy-2-methylpropyl)-1-(1H-pyrazol-4-yl)-4,6,7,8-tetrahydro-3H-9-oxa-2-thia-4-azabenzo[cd]azulen-3-one]: greater than 9.00; for `O=c1[nH]c(CN2CC(O)C2)c2c3c(c(-c4cn[nH]c4)sc13)OCCC2` [Example 78, 7-[(3-hydroxyazetidin-1-yl)methyl]-2-(1H-pyrazol-4-yl)-12-oxa-3-thia-6-azatricyclo [6.4.1.0^4,13]trideca-1,4(13),7-trien-5-one]: greater than 9.00.

In turn, `O=c1[nH]c(C2(O)CCCC2)c2c3c(c(-c4cn[nH]c4)sc13)OCCC2` [Example 85, 5-(1-hydroxycyclopentyl)-1-(1H-pyrazol-4-yl)-4,6,7,8-tetrahydro-3H-9-oxa-2-thia-4-azabenzo[cd]azulen-3-one] had a pIC50 greater than 9.00.
